Measured values taken from patent US20260337193A1, “SMALL MOLECULE INHIBITORS OF UBIQUITIN SPECIFIC PROTEASE 1 (USP1) AND USES THEREOF” (Insilico Medicine IP Limited, priority 2023, published 2026).

Legend:
MDA-MB-436 cells = assay: MDA-MB-436 breast cancer cell proliferation assay (CellTiter-Glo); assay type: cell-based; conditions: Homo sapiens, 168 h, 7 days, 37° C.
Description: Example A2: MDA-MB-436 Breast Cancer Cell Culture
MDA-MB-436 cells were grown in Leibovitz's L-15 medium with 10 μg/ml insulin, 16 μg/ml glutathione, 10% FBS. Cells were passaged at subconfluence after trypsinization and maintained in incubators at 37° C. in a humidified atmosphere with 5% CO2.
Example A3: MDA-MB-436 Breast Cancer Cell Proliferation Assay
Cell proliferation was determined using CellTiter-Glo® Luminescent Cell Viability Assay (Promega, #G7573). MDA-MB-436 cells were seeded in 384-well plates and allowed to attach for 24 h. Compounds were added into 384-well plate by ECHO, and incubated at 37° C. in a humidified atmosphere with 5% CO2. After 7 days, CellTiter-Glo® was added into 384 well plates, contents were mixed on an orbital shaker at 400 g for 2 min before centrifuging the plate for 2 min at 1000 rpm. After incubation at RT for 30 min, luminescence was read on envision.

[1] = biological target: T1, Human recombinant USP1/UAF1 (Homo sapiens, UniProt O94782); assay: Enzymatic assay: USP1/UAF1 deubiquitination of Ubiquitin Rhodamine 110 (kinetic fluorescence); assay type: biochemical; conditions: 2 nM USP1/UAF1, 15 min preincubation at RT, HEPES pH 8.0, 500 nM Ubiquitin Rhodamine 110
T1 construct: purchased R & D E-568-050; host or cells: baculovirus infected Sf21 cells
T1 sequence (O94782 whole entry): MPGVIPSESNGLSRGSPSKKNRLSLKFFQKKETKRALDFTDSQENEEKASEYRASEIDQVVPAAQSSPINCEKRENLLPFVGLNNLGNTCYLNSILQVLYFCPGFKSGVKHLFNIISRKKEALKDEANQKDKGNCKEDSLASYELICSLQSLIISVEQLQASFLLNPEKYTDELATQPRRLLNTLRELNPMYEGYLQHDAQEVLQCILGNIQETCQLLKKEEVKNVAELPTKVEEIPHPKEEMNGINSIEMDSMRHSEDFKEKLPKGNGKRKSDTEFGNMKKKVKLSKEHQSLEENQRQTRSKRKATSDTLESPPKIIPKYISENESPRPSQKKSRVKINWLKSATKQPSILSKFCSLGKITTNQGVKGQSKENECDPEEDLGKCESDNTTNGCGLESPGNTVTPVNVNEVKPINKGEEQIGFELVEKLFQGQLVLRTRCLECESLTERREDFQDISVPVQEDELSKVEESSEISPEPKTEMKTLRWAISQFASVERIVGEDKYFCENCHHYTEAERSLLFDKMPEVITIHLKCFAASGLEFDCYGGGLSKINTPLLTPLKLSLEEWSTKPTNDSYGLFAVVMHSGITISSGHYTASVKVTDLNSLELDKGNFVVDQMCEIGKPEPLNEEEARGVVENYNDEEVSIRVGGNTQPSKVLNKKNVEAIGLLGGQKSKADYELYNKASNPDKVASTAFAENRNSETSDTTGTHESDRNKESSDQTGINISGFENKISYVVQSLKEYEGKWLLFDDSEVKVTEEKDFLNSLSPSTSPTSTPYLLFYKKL
T1 sequence (Q8TAF3 whole entry partner): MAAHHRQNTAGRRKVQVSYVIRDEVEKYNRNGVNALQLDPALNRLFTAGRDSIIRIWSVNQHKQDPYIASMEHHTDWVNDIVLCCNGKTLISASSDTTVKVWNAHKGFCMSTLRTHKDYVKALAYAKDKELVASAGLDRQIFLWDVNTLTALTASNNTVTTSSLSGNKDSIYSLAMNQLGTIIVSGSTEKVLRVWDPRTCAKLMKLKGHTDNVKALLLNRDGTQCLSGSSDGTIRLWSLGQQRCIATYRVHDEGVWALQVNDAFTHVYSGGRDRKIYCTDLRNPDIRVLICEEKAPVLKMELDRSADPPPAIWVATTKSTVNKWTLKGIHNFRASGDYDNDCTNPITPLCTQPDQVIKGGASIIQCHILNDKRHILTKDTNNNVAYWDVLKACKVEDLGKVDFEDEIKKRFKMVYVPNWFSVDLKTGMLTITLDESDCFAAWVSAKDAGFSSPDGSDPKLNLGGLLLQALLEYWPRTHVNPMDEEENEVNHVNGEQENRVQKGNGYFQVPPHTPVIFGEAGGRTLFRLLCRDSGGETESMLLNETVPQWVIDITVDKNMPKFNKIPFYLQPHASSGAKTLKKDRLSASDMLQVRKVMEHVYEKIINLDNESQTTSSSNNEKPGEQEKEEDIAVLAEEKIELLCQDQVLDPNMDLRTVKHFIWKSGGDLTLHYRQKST
Description: Example A1: Enzymatic Assay
Human recombinant USP1/UAF1 expressed in baculovirus infected Sf21 cells were used (R & D, E-568-050). Test compound and/or vehicle was incubated with 2 nM of USP1/UAF1 in modified HEPES buffer pH 8.0 for 15 minutes at RT. The reaction was initiated by addition of 500 nM of Ubiquitin Rhodamine 110 (R & D, U-555-050) for kinetic reading. Slope change of fluorescence intensity was read spectrofluorimetrically at 485 nm/535 nm. Dose response of test compounds or reference compound ML-323 was analyzed by nonlinear regression of GraphPad prism software.

IC50 (MDA-MB-436 cells)	IC50 [1]	Compound
< 50 nM	< 50 nM	COc1ncnc(C2CC2)c1-n1nc(Cl)c2c1CN(c1ccc(-c3nc(C(F)(F)F)cn3C)cn1)CC2 [Compound 28, 3-chloro-1-(4-cyclopropyl-6-methoxypyrimidin-5-yl)-6-(5-(1-methyl-4-(trifluoromethyl)-1H-imidazol-2-yl)pyridin-2-yl)-4,5,6,7-tetrahydro-1H-pyrazolo[3,4-c]pyridine]
< 50 nM	50 to 1000 nM	COc1ncnc(C2CC2)c1-n1nc(C)c2c1CN(c1ccc(-c3nc(C(F)(F)F)cn3C)cc1F)CC2 [Compound 18, 1-(4-cyclopropyl-6-methoxypyrimidin-5-yl)-6-(2-fluoro-4-(1-methyl-4-(trifluoromethyl)-1H-imidazol-2-yl)phenyl)-3-methyl-4,5,6,7-tetrahydro-1H-pyrazolo[3,4-c]pyridine]
< 50 nM	< 50 nM	CCn1cc(C(F)(F)F)nc1-c1cnc(N2CCc3c(C)nn(-c4c(C)cnn4C(C)C)c3C2)cn1 [Compound 29, 6-(5-(1-ethyl-4-(trifluoromethyl)-1H-imidazol-2-yl)pyrazin-2-yl)-1-(1-isopropyl-4-methyl-1H-pyrazol-5-yl)-3-methyl-4,5,6,7-tetrahydro-1H-pyrazolo[3,4-c]pyridine]
50 to 1000 nM	< 50 nM	CCn1cc(C(F)(F)F)nc1-c1cnc(N2CCc3c(C)nn(-c4c(OC)ncnc4C4CC4)c3C2)cn1 [Compound 32, 1-(4-cyclopropyl-6-methoxypyrimidin-5-yl)-6-(5-(1-ethyl-4-(trifluoromethyl)-1H-imidazol-2-yl)pyrazin-2-yl)-3-methyl-4,5,6,7-tetrahydro-1H-pyrazolo[3,4-c]pyridine]
50 to 1000 nM	50 to 1000 nM	COc1ncnc(C2CC2)c1-c1nn(C)c2c1CN(c1ncc(-c3nc(C(F)(F)F)cn3C)s1)C2 [Compound 4, 2-(3-(4-cyclopropyl-6-methoxypyrimidin-5-yl)-1-methyl-4,6-dihydropyrrolo[3,4-c]pyrazol-5(1H)-yl)-5-(1-methyl-4-(trifluoromethyl)-1H-imidazol-2-yl)thiazole]
1000 to 10000 nM	50 to 1000 nM	COc1ncnc(C2CC2)c1-c1nccc2c1CC(c1ccc(-c3nc(C(F)(F)F)cn3C)cn1)C2 (stereo not shown) [Compound 31, 1-(4-cyclopropyl-6-methoxypyrimidin-5-yl)-6-(5-(1-methyl-4-(trifluoromethyl)-1H-imidazol-2-yl)pyridin-2-yl)-6,7-dihydro-5H-cyclopenta[c]pyridine]
–	1000 to 10000 nM	COc1ncnc(C2CC2)c1-c1nn(C)c2c1CN(c1ccc(-c3nc(C(F)(F)F)cn3C)nc1)C2 [Compound 6, 3-(4-cyclopropyl-6-methoxypyrimidin-5-yl)-1-methyl-5-(6-(1-methyl-4-(trifluoromethyl)-1H-imidazol-2-yl)pyridin-3-yl)-1,4,5,6-tetrahydropyrrolo[3,4-c]pyrazole]
–	1000 to 10000 nM	COc1ncnc(C2CC2)c1-c1nn(C)c2c1CN(c1ccc(-c3nc(C(F)(F)F)cn3C)cn1)C2 [Compound 5, 3-(4-cyclopropyl-6-methoxypyrimidin-5-yl)-1-methyl-5-(5-(1-methyl-4-(trifluoromethyl)-1H-imidazol-2-yl)pyridin-2-yl)-1,4,5,6-tetrahydropyrrolo[3,4-c]pyrazole]
–	50 to 1000 nM	CC(C)c1ncccc1-c1nn(C)c2c1CN(c1ncc(-c3nc(C(F)(F)F)cn3C)s1)C2 [Compound 9, 2-(3-(2-isopropylpyridin-3-yl)-1-methyl-4,6-dihydropyrrolo[3,4-c]pyrazol-5(1H)-yl)-5-(1-methyl-4-(trifluoromethyl)-1H-imidazol-2-yl)thiazole]
–	50 to 1000 nM	COc1ncnc(C2CC2)c1-c1nn(C)c2c1CN(c1ccc(-c3nc(C(F)(F)F)cn3C)cc1)C2 [Compound 7, 3-(4-cyclopropyl-6-methoxypyrimidin-5-yl)-1-methyl-5-(4-(1-methyl-4-(trifluoromethyl)-1H-imidazol-2-yl)phenyl)-1,4,5,6-tetrahydropyrrolo[3,4-c]pyrazole]
